Results published in ChEMBL document CHEMBL6103537 (J Med Chem, 2025).
pKi: −log10 of the molar value.

Assays:
[1] = biological target: T1, Signal transducer and activator of transcription 6 (Homo sapiens, UniProt P42226); experiment: Binding affinity to N-terminal his6-tgged STAT6 (unknown origin) (113 to 658 residues) assessed as inhibition constant incubated for 1 hr by fluorescence polarization assay
T1 sequence (P42226 whole entry): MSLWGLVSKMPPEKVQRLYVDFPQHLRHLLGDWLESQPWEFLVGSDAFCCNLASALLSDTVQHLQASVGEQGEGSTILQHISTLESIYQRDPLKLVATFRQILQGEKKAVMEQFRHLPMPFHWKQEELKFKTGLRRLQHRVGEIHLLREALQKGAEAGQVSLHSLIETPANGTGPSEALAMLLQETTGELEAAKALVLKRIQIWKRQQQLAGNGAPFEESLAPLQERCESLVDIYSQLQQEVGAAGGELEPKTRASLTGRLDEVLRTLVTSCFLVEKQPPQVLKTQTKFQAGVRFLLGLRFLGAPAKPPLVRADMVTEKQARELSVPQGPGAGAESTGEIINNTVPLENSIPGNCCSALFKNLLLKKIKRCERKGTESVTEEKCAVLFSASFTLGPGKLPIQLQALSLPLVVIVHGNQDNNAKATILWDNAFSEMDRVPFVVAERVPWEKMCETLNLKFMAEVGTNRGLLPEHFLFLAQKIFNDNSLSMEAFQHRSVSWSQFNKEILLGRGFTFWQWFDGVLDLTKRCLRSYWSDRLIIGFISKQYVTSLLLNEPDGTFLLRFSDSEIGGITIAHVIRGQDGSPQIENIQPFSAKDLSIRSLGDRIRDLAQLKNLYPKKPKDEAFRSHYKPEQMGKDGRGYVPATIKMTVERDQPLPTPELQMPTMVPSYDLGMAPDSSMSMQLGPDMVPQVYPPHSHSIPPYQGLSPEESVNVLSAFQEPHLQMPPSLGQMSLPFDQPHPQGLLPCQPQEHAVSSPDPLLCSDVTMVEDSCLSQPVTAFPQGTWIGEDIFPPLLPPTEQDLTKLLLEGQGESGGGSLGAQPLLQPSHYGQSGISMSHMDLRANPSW

[2] = biological target: T2, Protein cereblon/Signal transducer and activator of transcription 6 (Homo sapiens, UniProt P42226+Q96SW2); experiment: PROTAC activity at STAT6/CRBN in human MV4-11 cells assessed as reduction in STAT6 level incubated for 12 hrs by Western blot analysis; type: cell-based
Target sequence in this assay (Q96SW2 whole entry, one chain of several): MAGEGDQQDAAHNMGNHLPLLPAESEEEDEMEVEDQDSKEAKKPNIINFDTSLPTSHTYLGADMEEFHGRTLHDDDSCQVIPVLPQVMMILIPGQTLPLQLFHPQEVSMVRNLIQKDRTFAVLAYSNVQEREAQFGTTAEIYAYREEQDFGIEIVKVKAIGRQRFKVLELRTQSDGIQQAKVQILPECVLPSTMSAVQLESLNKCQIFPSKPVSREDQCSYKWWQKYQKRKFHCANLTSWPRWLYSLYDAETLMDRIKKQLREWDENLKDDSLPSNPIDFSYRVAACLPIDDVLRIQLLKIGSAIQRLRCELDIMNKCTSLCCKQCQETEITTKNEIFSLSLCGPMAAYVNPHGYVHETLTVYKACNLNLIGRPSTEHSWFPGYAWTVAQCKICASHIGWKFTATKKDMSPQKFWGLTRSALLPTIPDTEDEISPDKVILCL

[3] = biological target: T2, Protein cereblon/Signal transducer and activator of transcription 6; experiment: PROTAC activity at STAT6/CRBN in human MV4-11 cells assessed as reduction in STAT6 level at 5 uM incubated for 12 hrs by Western blot analysis relative to control; type: cell-based
Target sequence in this assay (Q96SW2 whole entry partner, one chain of several): as the sequence (Q96SW2 whole entry, one chain of several) above

[4] = biological target: T3, Signal transducer and activator of transcription 5B (Homo sapiens, UniProt P51692); experiment: Binding affinity to STAT5B (unknown origin) assessed as inhibition constant incubated for 1 hr by fluorescence polarization assay
T3 sequence (P51692 whole entry): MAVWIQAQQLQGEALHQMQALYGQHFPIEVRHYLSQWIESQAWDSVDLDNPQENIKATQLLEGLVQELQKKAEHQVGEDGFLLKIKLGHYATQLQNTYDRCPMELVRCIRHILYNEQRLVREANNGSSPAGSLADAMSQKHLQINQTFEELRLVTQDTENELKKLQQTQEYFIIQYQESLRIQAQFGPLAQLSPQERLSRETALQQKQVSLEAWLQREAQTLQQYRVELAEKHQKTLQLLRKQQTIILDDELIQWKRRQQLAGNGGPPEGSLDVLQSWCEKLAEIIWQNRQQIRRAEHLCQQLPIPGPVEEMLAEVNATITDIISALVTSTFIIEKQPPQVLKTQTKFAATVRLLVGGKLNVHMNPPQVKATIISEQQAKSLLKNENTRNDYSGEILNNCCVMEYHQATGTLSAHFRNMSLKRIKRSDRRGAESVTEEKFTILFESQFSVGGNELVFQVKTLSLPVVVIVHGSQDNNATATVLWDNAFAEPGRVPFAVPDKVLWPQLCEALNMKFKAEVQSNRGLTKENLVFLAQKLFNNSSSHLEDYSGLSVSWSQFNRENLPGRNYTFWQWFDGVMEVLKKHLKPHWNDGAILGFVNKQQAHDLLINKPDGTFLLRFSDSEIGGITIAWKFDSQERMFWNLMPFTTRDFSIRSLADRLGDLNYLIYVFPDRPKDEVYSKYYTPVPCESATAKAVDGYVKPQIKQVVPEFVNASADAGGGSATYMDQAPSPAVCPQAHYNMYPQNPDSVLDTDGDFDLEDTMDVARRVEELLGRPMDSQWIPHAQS

| pKi [1] | Compound | also measured |
| --- | --- | --- |
| 6.60 | O=C(N[C@@H](Cc1ccc2ccccc2c1)C(=O)N1CCC[C@H]1C(=O)N1CCO[C@H](c2ccccc2)C1)c1cc2cc(C(F)(F)P(=O)(O)O)ccc2s1 | – |
| 7.08 | CC(C)(C)[C@H](NC(=O)c1cc2cc(C(F)(F)P(=O)(O)O)ccc2s1)C(=O)N1Cc2ccccc2C[C@H]1C(=O)N1CCO[C@H](c2ccccc2)C1 | – |
| 6.72 | CC(C)(C)[C@H](NC(=O)c1cc2cc(C(F)(F)P(=O)(O)O)ccc2s1)C(=O)N1Cc2ccccc2C[C@H]1C(=O)N1CCC[C@H](c2ccccc2)C1 | – |
| 6.80 | CC(C)(C)[C@H](NC(=O)c1cc2cc(C(F)(F)P(=O)(O)O)ccc2s1)C(=O)N1CCCC[C@H]1C(=O)N1CCC[C@H](c2ccccc2)C1 | – |
| – | CC(C)(C)[C@H](NC(=O)c1cc2cc(C(F)(F)P(=O)(O)O)ccc2s1)C(=O)N1C[C@H](OCCCCCC#Cc2cccc3c2CN(C2CCC(=O)NC2=O)C3=O)C[C@H]1C(=O)N1CCO[C@H](c2ccccc2)C1 (stereo not given in full) | DC50 [2]: 130 nM; Emax [3]: > 95% |
| 6.96 | CC(C)(C)[C@H](NC(=O)c1cc2cc(C(F)(F)P(=O)(O)O)ccc2s1)C(=O)N1CCCC[C@H]1C(=O)N1CCO[C@H](c2ccccc2)C1 | – |
| – | CC(C)(C)[C@H](NC(=O)c1cc2cc(C(F)(F)P(=O)(O)O)ccc2s1)C(=O)N1C[C@@H](OCCCCC#Cc2cccc3c2CN(C2CCC(=O)NC2=O)C3=O)C[C@H]1C(=O)N1CCO[C@H](c2ccccc2)C1 (stereo not given in full) | DC50 [2]: 50 nM; Emax [3]: > 95% |
| – | CC(C)(C)[C@H](NC(=O)c1cc2cc(C(F)(F)P(=O)(O)O)ccc2s1)C(=O)N1C[C@@H](OCCCCCCC#Cc2cccc3c2CN(C2CCC(=O)NC2=O)C3=O)C[C@H]1C(=O)N1CCO[C@H](c2ccccc2)C1 (stereo not given in full) | DC50 [2]: 20 nM; Emax [3]: > 95% |
| 6.77 | O=C(N[C@@H](Cc1ccc(Br)cc1)C(=O)N1CCC[C@H]1C(=O)N1CCO[C@H](c2ccccc2)C1)c1cc2cc(C(F)(F)P(=O)(O)O)ccc2s1 | – |
| – | CC(C)(C)[C@H](NC(=O)c1cc2cc(C(F)(F)P(=O)(O)O)ccc2s1)C(=O)N1C[C@@H](NC(=O)CCCC#Cc2cccc3c2CN(C2CCC(=O)NC2=O)C3=O)C[C@H]1C(=O)N1CCO[C@H](c2ccccc2)C1 (stereo not given in full) | DC50 [2]: 260 nM; Emax [3]: > 95% |
| 6.59 | O=C(N[C@H](C(=O)N1CCC[C@H]1C(=O)N1CCO[C@H](c2ccccc2)C1)C1CCNCC1)c1cc2cc(C(F)(F)P(=O)(O)O)ccc2s1 | – |
| – | CC(C)(C)[C@H](NC(=O)c1cc2cc(C(F)(F)P(=O)(O)O)ccc2s1)C(=O)N1C[C@@H](NC(=O)CCCCC#Cc2cccc3c2CN(C2CCC(=O)NC2=O)C3=O)C[C@H]1C(=O)N1CCO[C@H](c2ccccc2)C1 (stereo not given in full) | DC50 [2]: 120 nM; Emax [3]: > 95% |
| 6.68 | COc1ccc(C[C@H](NC(=O)c2cc3cc(C(F)(F)P(=O)(O)O)ccc3s2)C(=O)N2CCC[C@H]2C(=O)N2CCO[C@H](c3ccccc3)C2)cc1 | – |
| 6.35 | O=C(N[C@@H](Cc1ccncc1)C(=O)N1CCC[C@H]1C(=O)N1CCO[C@H](c2ccccc2)C1)c1cc2cc(C(F)(F)P(=O)(O)O)ccc2s1 | – |
| 6.47 | O=C(N[C@@H](Cc1ccccc1)C(=O)N1CCC[C@H]1C(=O)N1CCO[C@H](c2ccccc2)C1)c1cc2cc(C(F)(F)P(=O)(O)O)ccc2s1 | – |
| 7.48 | CC(C)(C)[C@H](NC(=O)c1cc2cc(C(F)(F)P(=O)(O)O)ccc2s1)C(=O)N1Cc2ccccc2[C@H]1C(=O)N1CCO[C@H](c2ccccc2)C1 | – |
| 6.60 | CN1CCC(C[C@H](NC(=O)c2cc3cc(C(F)(F)P(=O)(O)O)ccc3s2)C(=O)N2CCC[C@H]2C(=O)N2CCO[C@H](c3ccccc3)C2)CC1 | – |
| 6.92 | O=C(N[C@H](C(=O)N1CCC[C@H]1C(=O)N1CCO[C@H](c2ccccc2)C1)C1CC1)c1cc2cc(C(F)(F)P(=O)(O)O)ccc2s1 | – |

| pKi [1] | Compound | also measured |
| --- | --- | --- |
| 6.92 | CC(C)(O)[C@H](NC(=O)c1cc2cc(C(F)(F)P(=O)(O)O)ccc2s1)C(=O)N1CCC[C@H]1C(=O)N1CCO[C@H](c2ccccc2)C1 | – |
| – | CC(C)(C)[C@H](NC(=O)c1cc2cc(C(F)(F)P(=O)(O)O)ccc2s1)C(=O)N1C[C@@H](NC(=O)CCCCCC#Cc2ccc3c(c2)CN(C2CCC(=O)NC2=O)C3=O)C[C@H]1C(=O)N1CCO[C@H](c2ccccc2)C1 (stereo not given in full) | DC50 [2]: 200 nM; Emax [3]: > 90% |
| – | CC(C)(C)[C@H](NC(=O)c1cc2cc(C(F)(F)P(=O)(O)O)ccc2s1)C(=O)N1C[C@@H](NC(=O)CCCCCC#Cc2cccc3c2CN(C2CCC(=O)NC2=O)C3=O)C[C@H]1C(=O)N1CCO[C@H](c2ccccc2)C1 (stereo not given in full) | DC50 [2]: 60 nM; Emax [3]: > 95% |
| – | CC(C)(C)[C@H](NC(=O)c1cc2cc(C(F)(F)P(=O)(O)O)ccc2s1)C(=O)N1C[C@@H](OCCCCCCNc2cccc3c2CN(C2CCC(=O)NC2=O)C3=O)C[C@H]1C(=O)N1CCO[C@H](c2ccccc2)C1 (stereo not given in full) | DC50 [2]: 60 nM; Emax [3]: > 95% |
| 6.70 | CC(C)(C)[C@H](NC(=O)c1cc2cc(C(F)(F)P(=O)(O)O)ccc2s1)C(=O)N1CCCCC[C@H]1C(=O)N1CCC[C@H](c2ccccc2)C1 | – |
| – | CC(=O)N[C@H]1C[C@@H](C(=O)N2CCO[C@H](c3ccccc3)C2)N(C(=O)[C@@H](NC(=O)c2cc3cc(C(F)(F)P(=O)(O)O)ccc3s2)C(C)(C)C)C1 | pKi [4]: 6.23 |
| – | CC(C)(C)[C@H](NC(=O)c1cc2cc(C(F)(F)P(=O)(O)O)ccc2s1)C(=O)N1C[C@@H](OCCCCCCCC#Cc2cccc3c2CN(C2CCC(=O)NC2=O)C3=O)C[C@H]1C(=O)N1CCO[C@H](c2ccccc2)C1 (stereo not given in full) | DC50 [2]: 60 nM; Emax [3]: > 95% |
| 7.05 | O=C(N[C@H](C(=O)N1CCC[C@H]1C(=O)N1CCO[C@H](c2ccccc2)C1)C1CCCCC1)c1cc2cc(C(F)(F)P(=O)(O)O)ccc2s1 | – |
| 7.38 | CC(C)(C)[C@H](NC(=O)c1cc2cc(C(F)(F)P(=O)(O)O)ccc2s1)C(=O)N1Cc2ccccc2[C@H]1C(=O)N1CCC[C@H](c2ccccc2)C1 | – |
| 8.22 | CO[C@H]1C[C@@H](C(=O)N2CCO[C@H](c3ccccc3)C2)N(C(=O)[C@@H](NC(=O)c2cc3cc(C(F)(F)P(=O)(O)O)ccc3s2)C(C)(C)C)C1 | – |
| 6.92 | CC(C)(C)[C@H](NC(=O)c1cc2cc(C(F)(F)P(=O)(O)O)ccc2s1)C(=O)N1CCCCC[C@H]1C(=O)N1CCO[C@H](c2ccccc2)C1 | – |
| 5.46 | C/C(=C\C(=O)N[C@H](C(=O)N1CCC[C@H]1C(=O)N1CCc2ccccc2C1)C(C)(C)C)c1ccc(C(F)(F)P(=O)(O)O)cc1 | – |
| – | CC(C)(C)[C@H](NC(=O)c1cc2cc(C(F)(F)P(=O)(O)O)ccc2s1)C(=O)N1C[C@@H](NC(=O)CCCCCCC#Cc2cccc3c2CN(C2CCC(=O)NC2=O)C3=O)C[C@H]1C(=O)N1CCO[C@H](c2ccccc2)C1 (stereo not given in full) | DC50 [2]: 250 nM; Emax [3]: > 95% |
| – | CC(C)(C)[C@H](NC(=O)c1cc2cc(C(F)(F)P(=O)(O)O)ccc2s1)C(=O)N1CCC[C@H]1C(=O)N1Cc2ccccc2C1 | pKi [4]: < 5.30 |
| 6.80 | CC[C@H](NC(=O)c1cc2cc(C(F)(F)P(=O)(O)O)ccc2s1)C(=O)N1CCC[C@H]1C(=O)N1CCO[C@H](c2ccccc2)C1 | – |
| 6.80 | CC(C)(C)c1ccc(C[C@H](NC(=O)c2cc3cc(C(F)(F)P(=O)(O)O)ccc3s2)C(=O)N2CCC[C@H]2C(=O)N2CCO[C@H](c3ccccc3)C2)cc1 | – |
| 6.74 | O=C(N[C@@H](CC1CCNCC1)C(=O)N1CCC[C@H]1C(=O)N1CCO[C@H](c2ccccc2)C1)c1cc2cc(C(F)(F)P(=O)(O)O)ccc2s1 | – |
